The values that follow come from US5891620A, “Steroid sulfatase assay” (Imperial College of Science, Technology and Medicine, priority 1994, dated 1999).

This assay concerns Oestrone sulphatase activity in human white blood cells. The assay is described as follows: Oestrone sulphatase activity in white blood cells of volunteers after an oral dose of inhibitor. The format is in vivo. Particulars: two healthy male volunteers; single oral dose 0.5 mg/Kg; white blood cells from blood samples taken for up to 28 days. On the procedure: Purified leukocytes (according to Tulchinsky JCEM 65, 1026, 1987) from 10 ml whole blood are suspended in 1 ml PBS-sucrose. 0.2 ml of this is used for EST assay as above (incubated for 2 hr at 37° C. in a final volume of 1 ml).
After incubation, samples are extracted with 4 ml toluene. 2 ml of this is counted in 10 ml Scintillant.
The assay of the present invention, as described above, was investigated using two healthy, male volunteers whom received an oral dose of a steroid sulphatase inhibitor (Oestrone-3-O-sulphamate, 0.5 mg/Kg). In this regard, white blood cells were prepared from blood samples obtained from the subjects for up to 28 days. […] The results from this study confirm that the measurement of Oestrone Sulphatase activity in white blood cells will therefore allow the extent and duration of sulphatase inhibition to be monitored in subjects receiving steroid sulphatase inhibitors therapeutically. More details and results of these studies are shown in the attached FIG. 30. […] In particular, the assay of the present invention allows one to measure oestrone sulphatase activity in human white blood cells to monitor the extent of oestrone sulphatase inhibition.

Molecules are shown by their SMILES.

Take `C[C@]12CC[C@@H]3c4ccc(OS(N)(=O)=O)cc4CC[C@H]3[C@@H]1CCC2=O` [Oestrone-3-O-sulphamate]: the “inhibition of Oestrone sulphatase activity in white blood cells” value is listed as “significant inhibition”.
